System: mCRC patients
Assay: Phase III EPIC trial subgroup (US sites, 186 genotyped patients): IR/CB (arm A) vs IR alone (arm B), second line after failure of FOLFOX
Format: in vivo, human
Experimental: This study was to test functional germline polymorphisms involved in the EGFR—(EGF, EGFR), angiogenesis—(VEGF, IL-8, CXCR-2)—and drug-metabolism related genes (UGT1A1, MTHFR) for their potential role as molecular predictors for clinical outcome in patients treated with CB/IR vs. IR alone.
Material and Methods: DNA was extracted from all available formalin-fixed paraffin-embedded tumor samples from the phase III EPIC trial (US sites only). Genotyping was performed using PCR-RFLP assays and 5′-end [g-33P] ATP′ labeled PCR-protocols.
Results: 186 patients were treated either with IR/CB (arm A, 84 patients) or IR (arm B, 102 patients) only. […] It was found an EGFR-CA-repeat in intron I in arm A was associated with PFS (p=0.031, log-rank test) (Table 2). In arm A, a significant association with […] (RR) (p=0.0103, Fisher's exact test) for MTHFR 1298 was found (Table 3). […] Furthermore, MTHFR 677 and MTHFR 1298 was associated with OS (adjusted p=0.028 and 0.026, respectively, Cox-proportional hazards models), independent from K-ras mutation status, race and number of disease sites.

Compound: CCc1c2c(nc3ccc(OC(=O)N4CCC(N5CCCCC5)CC4)cc13)-c1cc3c(c(=O)n1C2)COC(=O)[C@]3(O)CC [IR, Irinotecan]
- Median PFS (95% CI): 2.7 months
- median overall survival (OS) (95% CI): 12.3 months
- patients showing CR or PR (arm A n=84, arm B n=102): 6%
- patients with SD or PD (arm A n=84, arm B n=102): 94%
